Experimental findings from PubChem BioAssay (NCI) are described below.

Structures are written as SMILES.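 Assay format: 96-well plates, 48-hour exposure. Abbreviation: GI50, concentration required for 50% inhibition of growth. TGI marks complete inhibition of growth.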 Bounds are passed on as bounds.

Test systems include KM12 colon; OVCAR-3 ovarian; M14 melanoma; CCRF-CEM leukemia; SR leukemia; RPMI-8226 leukemia; CAKI-1 renal; NCI-H460 lung; SK-MEL-28 melanoma; SF-295 CNS.
Assay in all cases: DTP human tumour cell line panel, 48 h

With `COc1ccc(C2SCC(=O)N2NC(=O)C(O)c2ccccc2)cc1OC` (stereo not given), the GI50 was above 100 µM with KM12 colon; above 100 µM in the experiment on OVCAR-3 ovarian; above 100 µM with M14 melanoma; above 100 µM with CCRF-CEM leukemia; 40.9 µM in the experiment with SR leukemia; above 100 µM with RPMI-8226 leukemia. The GI50 in the experiment with CAKI-1 renal, in the experiment with NCI-H460 lung, with SK-MEL-28 melanoma and in the experiment with SF-295 CNS was above 100 µM in each case. Further, the TGI with KM12 colon, in the experiment on OVCAR-3 ovarian, with M14 melanoma, with CCRF-CEM leukemia, in the experiment with SR leukemia and in the experiment with RPMI-8226 leukemia was above 100 µM each time. The TGI with CAKI-1 renal, in the experiment on NCI-H460 lung, in the experiment with SK-MEL-28 melanoma and in the experiment with SF-295 CNS was above 100 µM in each case.
Consider `COc1ccccc1N=C(N)N/N=C/c1c[nH]c2ccccc12`, for which the TGI was 29.6 µM in the experiment with KM12 colon; 25.7 µM in the experiment on OVCAR-3 ovarian; 10.5 µM in the experiment on M14 melanoma; 31.2 µM in the experiment with CCRF-CEM leukemia; 26.9 µM in the experiment on SR leukemia; 32.1 µM in the experiment on RPMI-8226 leukemia. The TGI is 26.7 µM in the experiment on CAKI-1 renal, 22.8 µM with NCI-H460 lung, 16.3 µM in the experiment on SK-MEL-28 melanoma and 21.3 µM in the experiment on SF-295 CNS.
